Test results: PubChem BioAssay (NCI)
Several values for one entry are separate records, joined by “and”; a condition that tells them apart may be missing. Equal entries are not always repeated.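 Protocol summary: plate cells (96-well), add compound at 5 concentrations, incubate 48 h, interpolate endpoints linearly. At the GI50, growth is halved. Definition used: TGI = concentration required for complete inhibition of growth.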

Columns and labels:
Assay in all cases: DTP human tumour cell line panel, 48 h
SK-MEL-28 melanoma = system: SK-MEL-28 melanoma
DU-145 prostate = system: DU-145 prostate
SNB-19 CNS = system: SNB-19 CNS
MDA-MB-231 breast = system: MDA-MB-231 breast
HCC-2998 colon = system: HCC-2998 colon
EKVX NSCLC = system: EKVX NSCLC
SK-OV-3 ovarian = system: SK-OV-3 ovarian
U251 CNS = system: U251 CNS
HT29 colon = system: HT29 colon
OVCAR-8 ovarian = system: OVCAR-8 ovarian

Compound | TGI (SK-MEL-28 melanoma) | TGI (DU-145 prostate) | TGI (SNB-19 CNS) | TGI (MDA-MB-231 breast) | TGI (HCC-2998 colon) | TGI (EKVX NSCLC) | TGI (SK-OV-3 ovarian) | TGI (U251 CNS) | TGI (HT29 colon) | TGI (OVCAR-8 ovarian) | GI50 (SK-MEL-28 melanoma) | GI50 (DU-145 prostate) | GI50 (SNB-19 CNS) | GI50 (MDA-MB-231 breast) | GI50 (HCC-2998 colon) | GI50 (EKVX NSCLC) | GI50 (SK-OV-3 ovarian) | GI50 (U251 CNS) | GI50 (HT29 colon) | GI50 (OVCAR-8 ovarian)
c1ccc(CN2CCc3[nH]c4ccccc4c3C2)cc1 | 32.8 µM | 78.3 µM | > 95.7 µM | 48.9 µM | 30.1 µM | > 86.8 µM | 98.4 µM | 53.8 µM | 36.4 µM | > 77.4 µM | – | – | – | – | – | – | – | – | – | –
Cc1ccc(C(=O)NCCCOc2ccc(N3C(N)=NC(N)=NC3(C)C)cc2Cl)cc1S(=O)(=O)F | > 100 µM | > 100 µM | > 100 µM | > 100 µM | > 100 µM | > 100 µM | > 100 µM | > 100 µM | > 100 µM | > 100 µM | 74.7 µM | > 100 µM | 75 µM | > 100 µM | 24 µM | > 100 µM | > 100 µM | 7.72 µM | 6.61 µM | 85.8 µM
COc1cccc(/C=C/c2nc3c(cnn3-c3ccccc3)c(=O)[nH]2)c1 | > 100 µM | > 100 µM | > 100 µM | > 100 µM | > 100 µM | > 100 µM | > 100 µM | > 100 µM | > 100 µM | > 100 µM | > 100 µM | > 100 µM | > 51.9 µM | 50 µM | > 100 µM | 65.8 µM | > 100 µM | > 72.1 µM | > 59 µM | > 54.7 µM
C=C1C(=O)OC2C1C(OC(=O)/C(C)=C/C)CC(O)(CCl)C1C(O)C=C(C)C21O (stereo unspecified) | 35 µM | 30.7 µM | > 64.2 µM | 30.9 µM | 25.6 µM | 29.9 µM | > 100 µM | 65.1 µM | 31.5 µM | 37.2 µM | – | – | – | – | – | – | – | – | – | –
C=C1c2ccccc2C(=O)c2c1c1c(C(=O)OC)c(OC(=O)OCc3ccc([N+](=O)[O-])cc3)ccc1n2Cc1ccccc1 | – | 33.5 µM | 80.9 µM | 65.6 µM | 39 µM | > 100 µM | 57.6 µM | > 100 µM | – | > 100 µM | – | 3.62 µM | 20.3 µM | 18.3 µM | 16.7 µM | 33.6 µM | 23.8 µM | 39.9 µM | – | 2.51 µM
COc1ccc(C(C)c2cc(OC)c(OC)c(OC)c2)cc1 (stereo unspecified) | > 50 µM | > 50 µM | > 50 µM | > 50 µM | > 50 µM | > 50 µM | > 50 µM | > 50 µM | > 50 µM | > 50 µM | 25.2 µM | 0.198 µM | 0.221 µM | 0.341 µM | 0.21 µM | 0.373 µM | 0.159 µM | 0.173 µM | 0.107 µM | 0.263 µM
CS(=O)(=O)Nc1cc(-c2ccc3ncnc(Nc4ccc(F)c(Cl)c4)c3c2)cnc1Cl | 9.61 µM | 11.1 µM and 13.6 µM | 10.1 µM and 7.92 µM | 3.21 µM and 5.92 µM | 4.05 µM | 3.19 µM and 2.61 µM | 1.34 µM and 2.71 µM | 2.57 µM and 9.19 µM | 6.82 µM and 7.81 µM | 12.9 µM and > 40.4 µM | 0.345 µM | 0.738 µM and 0.766 µM | 0.673 µM and 0.596 µM | 0.98 µM and 1.07 µM | 1.21 µM | 0.34 µM and 0.352 µM | 0.255 µM and 0.317 µM | 0.511 µM and 0.856 µM | 0.369 µM and 0.503 µM | 1.68 µM and 1.72 µM
COCCOCCOCc1n(Cc2ccc3ccccc3c2)c2ccccc2[n+]1Cc1ccc2ccccc2c1 | 1.92 µM | 2.14 µM | 1.59 µM | 1.64 µM | 2.06 µM | 2.68 µM | 2.49 µM | 1.48 µM | 1.34 µM | 1.74 µM | 0.503 µM | 0.766 µM | 0.377 µM | 0.38 µM | 0.56 µM | 1.04 µM | 1.14 µM | 0.352 µM | 0.321 µM | 0.421 µM
O=C(O)C1CC=CCC1C(=O)Nc1cccc(O)c1 (stereo unspecified) | > 100 µM | > 100 µM | > 100 µM | > 100 µM | > 100 µM | > 100 µM | > 100 µM | > 100 µM | > 100 µM | > 100 µM | – | – | – | – | – | – | – | – | – | –
O=C(NCCc1ccccc1)Nc1ccc2cc3ccc(NC(=O)NCCc4ccccc4)cc3nc2c1 | 2.8 µM | 2.76 µM | 2.97 µM | 2.75 µM | 1.68 µM | 21.8 µM | 3 µM | 2.16 µM | 3.56 µM | 2.7 µM | 1.43 µM | 1.24 µM | 1.4 µM | 1.35 µM | 0.447 µM | 3.49 µM | 1.51 µM | 0.746 µM | 1.39 µM | 0.807 µM
COc1ccc(/C(C)=N/NC(=O)CSc2nc3ccccc3c(=O)n2CCc2ccc(S(N)(=O)=O)cc2)cc1 | 3.3 µM | 3.55 µM | 4.78 µM | 3.88 µM | 28.6 µM | 12.8 µM | – | – | 3.7 µM | – | 1.75 µM | 1.77 µM | 2.27 µM | 1.87 µM | 9.26 µM | 2.85 µM | – | – | 1.95 µM | –
NCCCCCNc1noc(Cc2c[nH]c3cc(Br)ccc23)n1 | 19.3 µM | 9.01 µM | 25.6 µM | 15.7 µM | 14.7 µM | – | 12.5 µM | 16.6 µM | 10.3 µM | 39.4 µM | 3.93 µM | 3.11 µM | 7.67 µM | 2.78 µM | 2.84 µM | – | 2.46 µM | 2.89 µM | 1.08 µM | 3.74 µM
Nc1ccccc1C#C/C=C\C#CC#C/C=C\C#Cc1ccccc1N | 36.7 µM | 13.5 µM | 64.8 µM | 14.8 µM | 8.03 µM | 28.4 µM | > 100 µM | 22.2 µM | 32.7 µM | 29.5 µM | 14.6 µM | 2.97 µM | 16.2 µM | 1.54 µM | 2.25 µM | 7.84 µM | 22.8 µM | 5.61 µM | 8.36 µM | 4.8 µM
CCOC(=O)C(Cc1c[nH]c2cc(N(CCO)CCO)ccc12)(NC(C)=O)C(=O)OCC | > 1000 µM | > 1000 µM | > 1000 µM | > 1000 µM | > 1000 µM | > 1000 µM | > 1000 µM | > 1000 µM | > 1000 µM | > 1000 µM | 636 µM | 391 µM | > 1000 µM | 960 µM | > 1000 µM | > 1000 µM | 480 µM | 309 µM | 305 µM | 697 µM
Cc1c(Cl)c(=O)oc2cc(OC/C=C3\CCC(=O)O3)ccc12 | 50 µM | 29.4 µM | 51.7 µM | 33.2 µM | 41.2 µM | > 100 µM | > 100 µM | 33.3 µM | 43.3 µM | 47.2 µM | 19.7 µM | 14 µM | 17.7 µM | 16.8 µM | 18 µM | 29.9 µM | 58 µM | 16.8 µM | 17.2 µM | 20 µM
N#Cc1ccc(-c2c(-c3ncn[nH]3)sc(N3CCOCC3)c2C#N)c(F)c1 | 5.33 µM | > 100 µM | 38.9 µM | 25.7 µM | 17.2 µM | – | 5.69 µM | 21.7 µM | 18.3 µM | > 100 µM | 0.458 µM | 1.66 µM | 1.96 µM | 3.28 µM | 1.08 µM | – | 0.197 µM | 1.03 µM | 0.363 µM | 1.85 µM
Cc1ccc(C(=O)c2sc3nc4c(cc3c2N)CCCC4)c(C)c1 | > 100 µM | > 100 µM | > 100 µM | > 100 µM | > 100 µM | – | > 100 µM | > 100 µM | > 35 µM | > 100 µM | 2.15 µM | 0.838 µM | 4.68 µM | 1.08 µM | 4.72 µM | – | 0.515 µM | 0.376 µM | 0.443 µM | 0.807 µM
Nc1c(C(=O)Nc2ccccn2)sc2nc3c(cc12)C(O)CCC3 (stereo unspecified) | > 50 µM | > 50 µM | > 50 µM | > 50 µM | > 50 µM | > 50 µM | – | > 50 µM | > 50 µM | > 50 µM | > 50 µM | 1.94 µM | 2.13 µM | 18.3 µM | 1.85 µM | 3.29 µM | – | 1.87 µM | 1.55 µM | 2.19 µM
O=C(O)c1cc2ccccc2c2c3c(ccc12)OCO3 | 491 µM | > 1000 µM | 849 µM | > 1000 µM | 763 µM | – | 739 µM | 478 µM | 791 µM | 717 µM | 167 µM | 303 µM | 152 µM | 165 µM | 225 µM | – | 236 µM | 134 µM | 281 µM | 186 µM
O=S(=O)(NCCNc1nccc(-c2c(-c3ccc(F)c(O)c3)nc3sccn23)n1)c1ccc(Cl)cc1 | – | > 50 µM | 11.3 µM | 24.1 µM | > 50 µM | > 50 µM | 15.9 µM | 16 µM | – | 36.7 µM | – | 2.9 µM | 3.35 µM | 2.98 µM | 2.93 µM | 2.19 µM | 2.8 µM | 3.81 µM | – | 2.18 µM
